Measured values published in patent US20250122218A1, “MODULATORS OF CYSTIC FIBROSIS TRANSMEMBRANE CONDUCTANCE REGULATOR” (Vertex Pharmaceuticals Incorporated, priority 2022, published 2025).
pEC50: −log10 of the molar value.

biological target: T1, CFTR in F508del/MF-HBE cells (Homo sapiens, UniProt P13569, DEL508-508); assay: Ussing chamber assay of CFTR-mediated short-circuit currents (identification of potentiator compounds); assay type: cell-based; conditions: potentiator incubated 18-24 hours at 37° C. in combination with 10 μM corrector, in the presence of 20% human serum, CFTR-mediated ISC
T1 construct: human bronchial epithelial (HBE) cells derived from CF subjects heterozygous for F508del and a minimal function CFTR mutation; endogenous in cells; host or cells: primary human bronchial epithelial cells from CF subjects (F508del/MF-HBE)
T1 sequence (P13569 with tags, fused parts or gaps DEL508-508): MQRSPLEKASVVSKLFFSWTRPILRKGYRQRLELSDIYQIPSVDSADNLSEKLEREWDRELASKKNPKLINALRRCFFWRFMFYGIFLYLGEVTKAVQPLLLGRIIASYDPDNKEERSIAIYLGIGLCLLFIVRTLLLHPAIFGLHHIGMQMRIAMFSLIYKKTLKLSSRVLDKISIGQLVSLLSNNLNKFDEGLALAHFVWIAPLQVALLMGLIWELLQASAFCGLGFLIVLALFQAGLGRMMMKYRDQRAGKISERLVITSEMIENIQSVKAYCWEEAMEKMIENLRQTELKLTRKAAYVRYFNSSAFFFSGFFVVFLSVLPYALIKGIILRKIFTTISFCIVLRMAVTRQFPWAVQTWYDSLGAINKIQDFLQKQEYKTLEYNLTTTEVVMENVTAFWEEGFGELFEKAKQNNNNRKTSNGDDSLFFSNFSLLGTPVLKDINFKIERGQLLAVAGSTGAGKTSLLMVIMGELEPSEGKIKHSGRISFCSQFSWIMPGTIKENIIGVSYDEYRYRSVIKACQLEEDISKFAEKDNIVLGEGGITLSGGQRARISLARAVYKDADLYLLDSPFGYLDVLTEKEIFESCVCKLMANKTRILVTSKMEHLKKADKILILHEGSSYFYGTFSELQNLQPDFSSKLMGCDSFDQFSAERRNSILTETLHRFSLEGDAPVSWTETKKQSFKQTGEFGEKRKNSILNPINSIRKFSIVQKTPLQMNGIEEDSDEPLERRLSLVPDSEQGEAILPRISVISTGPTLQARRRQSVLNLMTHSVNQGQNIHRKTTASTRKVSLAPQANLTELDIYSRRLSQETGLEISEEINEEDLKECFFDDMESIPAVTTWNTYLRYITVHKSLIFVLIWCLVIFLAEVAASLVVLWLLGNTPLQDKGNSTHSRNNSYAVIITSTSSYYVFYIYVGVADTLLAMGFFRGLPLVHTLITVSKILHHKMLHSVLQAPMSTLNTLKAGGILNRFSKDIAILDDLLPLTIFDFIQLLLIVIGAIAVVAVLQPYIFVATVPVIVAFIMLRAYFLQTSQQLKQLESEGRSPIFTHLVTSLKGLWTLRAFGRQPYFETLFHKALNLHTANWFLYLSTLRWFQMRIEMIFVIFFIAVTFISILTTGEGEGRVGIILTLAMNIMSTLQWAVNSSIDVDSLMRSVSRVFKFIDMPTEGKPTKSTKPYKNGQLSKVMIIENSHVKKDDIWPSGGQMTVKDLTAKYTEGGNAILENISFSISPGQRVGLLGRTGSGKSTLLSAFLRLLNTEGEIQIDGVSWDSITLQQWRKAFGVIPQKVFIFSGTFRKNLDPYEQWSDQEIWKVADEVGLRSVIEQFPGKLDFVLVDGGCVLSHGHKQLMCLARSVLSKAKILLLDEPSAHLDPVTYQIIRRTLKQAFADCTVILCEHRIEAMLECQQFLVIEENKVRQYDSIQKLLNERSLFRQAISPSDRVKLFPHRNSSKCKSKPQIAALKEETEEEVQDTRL
How it was run: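 F508del/MF-HBE cultures were preincubated 18-24 h at 37° C with potentiator plus 10 μM of a fixed corrector compound in 20% human serum; compounds were kept present during measurement. ISC was recorded under voltage clamp (0 mV, 37° C, amiloride apical) and taken as the 20 μM forskolin peak minus the current after inhibitor cocktail.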

Row | Structure (SMILES) | pEC50
1 | CC(C)Oc1ccc(CN2CCCCC[C@](O)(C(F)(F)F)C3=NN=C(O3)c3nc(c(C(F)(F)F)cc3N)C2=O)cc1 [Compound 143, (6R)-17-amino-6-hydroxy-12-[(4-isopropoxyphenyl)methyl]-6,15-bis (trifluoromethyl)-19-oxa-3,4,12,18-tetrazatricyclo [12.3.1.12,5] nonadeca-1(18),2,4,14,1 6-pentaen-13-one] | > 6.30
2 | Nc1cc(C(F)(F)F)c2nc1-c1nnc(o1)[C@@](O)(C(F)(F)F)CCCCCN(Cc1ccc(Cl)cc1)C2=O [Compound 144, (6R)-17-amino-12-[(4-chlorophenyl)methyl]-6-hydroxy-6,15-bis (trifluoromethyl)-19-oxa-3,4,12,18-tetrazatricyclo [12.3.1.12,5] nonadeca-1(18),2,4,14,1 6-pentaen-13-one] | > 6.30
3 | Nc1cc(C(F)(F)F)c2nc1-c1nnc(o1)[C@@](O)(C(F)(F)F)CCCCCN(Cc1ccc(F)cc1F)C2=O [Compound 145, (6R)-17-amino-12-[(2,4-difluorophenyl)methyl]-6-hydroxy-6,15-bis (trifluoromethyl)-19-oxa-3,4,12,18-tetrazatricyclo [12.3.1.12,5] nonadeca-1(18),2,4,14,1 6-pentaen-13-one] | > 6.30
4 | Nc1cc(C(F)(F)F)c2nc1-c1nnc(o1)[C@@](O)(C(F)(F)F)CCCCCN(Cc1ccc(F)c(F)c1)C2=O [Compound 146, (6R)-17-amino-12-[(3,4-difluorophenyl)methyl]-6-hydroxy-6,15-bis (trifluoromethyl)-19-oxa-3,4,12,18-tetrazatricyclo [12.3.1.12,5] nonadeca-1(18),2,4,14,1 6-pentaen-13-one] | > 6.30
5 | Nc1cc(C(F)(F)F)c2nc1-c1nnc(o1)[C@@](O)(C(F)(F)F)CCCCCN(Cc1ccc(C(F)(F)F)nc1)C2=O [Compound 147, (6R)-17-amino-6-hydroxy-6,15-bis (trifluoromethyl)-12-[[6-(trifluoromethyl)-3-pyridyl]methyl]-19-oxa-3,4,12,18-tetrazatricyclo [12.3.1.12,5] nonadeca-1(18),2,4,14,1 6-pentaen-13-one] | > 6.30
6 | CCCc1cccc(CN2CCCCC[C@](O)(C(F)(F)F)C3=NN=C(O3)c3nc(c(C(F)(F)F)cc3N)C2=O)c1 [Compound 148, (6R)-17-amino-6-hydroxy-12-[(3-propylphenyl)methyl]-6,15-bis (trifluoromethyl)-19-oxa-3,4,12,18-tetrazatricyclo [12.3.1.12,5] nonadeca-1(18),2,4,14,1 6-pentaen-13-one] | > 6.30
7 | Nc1cc(C(F)(F)F)c2nc1-c1nnc(o1)[C@@](O)(C(F)(F)F)CCCCCN(Cc1cccc(Cl)c1)C2=O [Compound 149, (6R)-17-amino-12-[(3-chlorophenyl)methyl]-6-hydroxy-6,15-bis (trifluoromethyl)-19-oxa-3,4,12,18-tetrazatricyclo [12.3.1.12,5] nonadeca-1(18),2,4,14,1 6-pentaen-13-one] | > 6.30
8 | CC1(C)Cc2cc(CN3CCCCC[C@](O)(C(F)(F)F)C4=NN=C(O4)c4nc(c(C(F)(F)F)cc4N)C3=O)ccc2O1 [Compound 150, (6R)-17-amino-12-[(2,2-dimethyl-3H-benzofuran-5-yl)methyl]-6-hydroxy-6,15-bis (trifluoromethyl)-19-oxa-3,4,12,18-tetrazatricyclo [12.3.1.12,5] nonadeca-1(18),2,4,14,1 6-pentaen-13-one] | > 6.30
9 | Nc1cc(C(F)(F)F)c2nc1-c1nnc(o1)[C@@](O)(C(F)(F)F)CCCCCN(Cc1ccc(C3(C(F)(F)F)CC3)cc1)C2=O [Compound 151] | > 6.30
10 | Nc1cc(C(F)(F)F)c2nc1-c1nnc(o1)[C@@](O)(C(F)(F)F)CCCCCN([C@H]1C[C@@H](c3ccccc3)C1)C2=O [Compound 152, (6R)-17-amino-6-hydroxy-12-(3-phenylcyclobutyl)-6,15-bis (trifluoromethyl)-19-oxa-3,4,12,18-tetrazatricyclo [12.3.1.12,5] nonadeca-1(18),2,4,14,1 6-pentaen-13-one] | > 6.30
11 | Nc1cc(C(F)(F)F)c2nc1-c1nnc(o1)[C@@](O)(C(F)(F)F)CCCCCN(Cc1ccc(OC(F)(F)F)c(Cl)c1)C2=O [Compound 153, (6R)-17-amino-12-[[3-chloro-4-(trifluoromethoxy)phenyl]methyl]-6-hydroxy-6,15-bis(trifluoromethyl)-19-oxa-3,4,12,18-tetrazatricyclo [12.3.1.12,5] nonadeca-1(18),2,4,14,1 6-pentaen-13-one] | > 6.30
12 | C[C@@H](c1ccc(OC(F)(F)F)cc1)N1CCCCC[C@](O)(C(F)(F)F)C2=NN=C(O2)c2nc(c(C(F)(F)F)cc2N)C1=O [Compound 154, (6R)-17-amino-6-hydroxy-12-[(1S)-1-[4-(trifluoromethoxy)phenyl]ethyl]-6,15-bis (trifluoromethyl)-19-oxa-3,4,12,18-tetrazatricyclo [12.3.1.12,5] nonadeca-1(18),2,4,14,1 6-pentaen-13-one] | > 6.30
13 | COc1ccccc1CN1CCCCC[C@](O)(C(F)(F)F)C2=NN=C(O2)c2nc(c(C(F)(F)F)cc2N)C1=O [Compound 155, (6R)-17-amino-6-hydroxy-12-[(2-methoxyphenyl)methyl]-6,15-bis (trifluoromethyl)-19-oxa-3,4,12,18-tetrazatricyclo [12.3.1.12,5] nonadeca-1(18),2,4,14,1 6-pentaen-13-one] | > 6.30
14 | Nc1cc(C(F)(F)F)c2nc1-c1nnc(o1)[C@@](O)(C(F)(F)F)CCCCCN(Cc1ccccc1C(F)(F)F)C2=O [Compound 156, (6R)-17-amino-6-hydroxy-6,15-bis (trifluoromethyl)-12-[[2-(trifluoromethyl)phenyl]methyl]-19-oxa-3,4,12,18-tetrazatricyclo [12.3.1.12,5] nonadeca-1(18),2,4,14,1 6-pentaen-13-one] | > 6.30
15 | Cc1cc(OC(F)(F)F)ccc1CN1CCCCC[C@](O)(C(F)(F)F)C2=NN=C(O2)c2nc(c(C(F)(F)F)cc2N)C1=O [Compound 157, (6R)-17-amino-6-hydroxy-12-[[2-methyl-4-(trifluoromethoxy)phenyl]methyl]-6,15-bis (trifluoromethyl)-19-oxa-3,4,12,18-tetrazatricyclo [12.3.1.12,5] nonadeca-1(18),2,4,14,1 6-pentaen-13-one] | > 6.30
16 | COc1cc(OC(F)(F)F)ccc1CN1CCCCC[C@](O)(C(F)(F)F)C2=NN=C(O2)c2nc(c(C(F)(F)F)cc2N)C1=O [Compound 158, (6R)-17-amino-6-hydroxy-12-[[2-methoxy-4-(trifluoromethoxy)phenyl]methyl]-6,15-bis(trifluoromethyl)-19-oxa-3,4,12,18-tetrazatricyclo [12.3.1.12,5] nonadeca-1(18),2,4,14,1 6-pentaen-13-one] | > 6.30
17 | Nc1cc(C(F)(F)F)c2nc1-c1nnc(o1)[C@@](O)(C(F)(F)F)CCCCCN(Cc1ccc(OC(F)(F)F)cc1F)C2=O [Compound 159, (6R)-17-amino-12-[[2-fluoro-4-(trifluoromethoxy)phenyl]methyl]-6-hydroxy-6,15-bis (trifluoromethyl)-19-oxa-3,4,12,18-tetrazatricyclo [12.3.1.12,5] nonadeca-1(18),2,4,14,1 6-pentaen-13-one] | > 6.30
18 | COc1ccc(CN2CCCCC[C@](O)(C(F)(F)F)C3=NN=C(O3)c3nc(c(C(F)(F)F)cc3N)C2=O)cc1F [Compound 160, (6R)-17-amino-12-[(3-fluoro-4-methoxy-phenyl)methyl]-6-hydroxy-6,15-bis (trifluoromethyl)-19-oxa-3,4,12,18-tetrazatricyclo [12.3.1.12,5] nonadeca-1(18),2,4,14,1 6-pentaen-13-one] | > 6.30
19 | Nc1cc(C(F)(F)F)c2nc1-c1nnc(o1)[C@@](O)(C(F)(F)F)CCCCCN(Cc1ccc(OC(F)(F)C(F)F)cc1)C2=O [Compound 161, (6R)-17-amino-6-hydroxy-12-[[4-(1,1,2,2-tetrafluoroethoxy)phenyl]methyl]-6,15-bis (trifluoromethyl)-19-oxa-3,4,12,18-tetrazatricyclo [12.3.1.12,5] nonadeca-1(18),2,4,14,1 6-pentaen-13-one] | > 6.30
20 | CCCc1ccc(CN2CCCCC[C@](O)(C(F)(F)F)C3=NN=C(O3)c3nc(c(C(F)(F)F)cc3N)C2=O)cc1 [Compound 162, (6R)-17-amino-6-hydroxy-12-[(4-propylphenyl)methyl]-6,15-bis (trifluoromethyl)-19-oxa-3,4,12,18-tetrazatricyclo [12.3.1.12,5] nonadeca-1(18),2,4,14,1 6-pentaen-13-one] | > 6.30
21 | COc1cc(CN2CCCCC[C@](O)(C(F)(F)F)C3=NN=C(O3)c3nc(c(C(F)(F)F)cc3N)C2=O)ccc1F [Compound 163, (6R)-17-amino-12-[(4-fluoro-3-methoxy-phenyl)methyl]-6-hydroxy-6,15-bis (trifluoromethyl)-19-oxa-3,4,12,18-tetrazatricyclo [12.3.1.12,5] nonadeca-1(18),2,4,14,1 6-pentaen-13-one] | > 6.30
22 | COc1cc(F)ccc1CN1CCCCC[C@](O)(C(F)(F)F)C2=NN=C(O2)c2nc(c(C(F)(F)F)cc2N)C1=O [Compound 164, (6R)-17-amino-12-[(4-fluoro-2-methoxy-phenyl)methyl]-6-hydroxy-6,15-bis (trifluoromethyl)-19-oxa-3,4,12,18-tetrazatricyclo [12.3.1.12,5] nonadeca-1(18),2,4,14,1 6-pentaen-13-one] | > 6.30
23 | Cc1cc(CN2CCCCC[C@](O)(C(F)(F)F)C3=NN=C(O3)c3nc(c(C(F)(F)F)cc3N)C2=O)ccc1OC(F)(F)F [Compound 165] | > 6.30
24 | Nc1cc(C(F)(F)F)c2nc1-c1nnc(o1)[C@@](O)(C(F)(F)F)CCCCCN(Cc1cccc(-c3ccccc3)c1)C2=O [Compound 166, (6R)-17-amino-6-hydroxy-12-[(3-phenylphenyl)methyl]-6,15-bis (trifluoromethyl)-19-oxa-3,4,12,18-tetrazatricyclo [12.3.1.12,5] nonadeca-1(18),2,4,14,1 6-pentaen-13-one] | > 6.30
